Results reported in the METLIN SMRT retention time set (Domingo-Almenara et al. 2019).

Experiment: gradient 5% acetonitrile 3 min, to 50% in 2 min, to 85% in 15 min, held 3 min, 100 µL/min
Conditions: column: Zorbax Extend-C18 2.1 x 50 mm; eluents: water / acetonitrile, 0.1% formic acid
Summary of the method: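 Over 3 months, pure standards in mixtures of ~100 molecules were run by HPLC coupled to a quadrupole time-of-flight mass spectrometer in positive and negative ionization mode. The column was a Zorbax Extend-C18 (2.1 × 50 mm, 1.8 μm) at 100 μL/min, eluted with water and acetonitrile each holding 0.1% formic acid, with 40 μL dead and 900 μL dwell volumes. Retention time was determined from adduct peaks chosen by software and checked manually.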

| SMILES | RP-LC retention time |
| --- | --- |
| COc1ccc(C(=O)N2CCN(c3cc(-c4cccs4)[nH]n3)CC2)cc1OC | 741 s |
| CN(C)S(=O)(=O)c1ccc(-c2nnc(C(=O)NCc3ccc(Br)cc3)o2)cc1 | 912 s |
| COc1ccc(C(CC(=O)NCCN2CCOCC2)N2Cc3ccccc3C2=O)cc1OC (stereo not drawn) | 603 s |
| O=C(CN1C(=O)C2CCCCN2c2ccc(C(=O)N3CCCC3)cc21)NC1CCCCC1 (stereo not drawn) | 814 s |
| Cc1cc(C2CCCN2C(=O)Nc2ccccc2Cl)no1 (stereo not drawn) | 802 s |
| CCCCOc1ccc(NC(=O)c2cc(=O)c3ccc(C)cc3o2)c2cccnc12 | 722 s |
| COc1ccccc1-c1nnc(-c2ccc(Cl)c(S(=O)(=O)N3CCCCC3)c2)o1 | 1100 s |
| Cc1ccccc1-c1csc(Nc2ccc(Br)cn2)n1 | 1230 s |
| Cc1csc(-c2cc(S(=O)(=O)Nc3cc(F)ccc3F)cn2CC(=O)N2CCCC2)n1 | 874 s |
| Cc1ccc(NC(=O)CSc2nc3nc(C)cc(C)n3n2)cc1 | 726 s |
| CCCOC(=O)C1=C(C)NC2=C(C(=O)C(C(=O)OC)C(C)C2)C1c1cccc(F)c1 (stereo not drawn) | 994 s |
| CC(C)(C)c1ccc(C(=O)Nc2cc(-c3ccccn3)no2)cc1 | 1020 s |
| Cc1nnc(-c2coc(S(=O)(=O)N3CCC(Cc4ccccc4)CC3)c2)o1 | 1010 s |
| O=C(CCc1c[nH]c2ccccc12)N1CCN(C(=O)c2cc(-c3ccncc3)n[nH]2)CC1 | 807 s |
| CCC(C)NC(=O)N1CCC(N2CCN(Cc3cccc(C)c3)C2=O)CC1 (stereo not drawn) | 784 s |
| COc1ccc(Cl)cc1NC(=O)Nc1ccc2c(c1)N(C)C(=O)C(C)(C)CO2 | 981 s |
| COc1ccc(CCN2CC(=O)N(c3ccc(C)c(C)c3)[C@@H]3CS(=O)(=O)C[C@@H]32)cc1 | 886 s |
| O=C(NCc1cccnc1)C1CCN(Cc2cc3ccccc3n2Cc2ccccc2Cl)CC1 | 630 s |
| CCCCOc1ccc(-c2nc3ncccn3c2NC2CCCCC2)cc1 | 957 s |
| COc1cccc(-c2nc(CS(=O)(=O)CC(=O)N3CCN(c4ccccn4)CC3)c(C)o2)c1 | 631 s |
| COc1cc(NC(=O)Cn2nc3c4ccc(F)cc4ncn3c2=O)cc(OC)c1 | 715 s |
| CC(C)Cn1c(CCNC(=O)c2ccc(F)cc2)nc2cccnc21 | 700 s |

| SMILES | RP-LC retention time |
| --- | --- |
| COc1nn(C)cc1C(=O)Nc1ccc(C(=O)Nc2cccc(-c3csc(C)n3)c2)cc1 | 748 s |
| O=C(Nc1ccccc1C(=O)NCCCN1CCN(C2CCCCC2)CC1)C1=CSCCO1 | 608 s |
| Cc1ccc(C(=O)N2C[C@H](c3nc(-c4cccnc4)no3)[C@@H](C)C2)c(C)c1 | 853 s |
| O=C(NCc1csc(C2CCN(C(=O)Cc3ccc(Cl)cc3)CC2)n1)C1CC1 | 747 s |
| Cc1cc(-c2nn3c(-c4cccc(F)c4)nnc3s2)c2ccccc2n1 | 887 s |
| COc1cc(C(=O)N2CCC3(CC2)NC(=O)c2ccc(F)cc2N3C)cc(OC)c1OC | 655 s |
| O=C(NCC(O)C1CCCCC1)c1cccc(C(F)(F)F)c1 (stereo not drawn) | 840 s |
| COc1ccc(C2(C(=O)N3C[C@H]4C[C@H](C3)[C@H]3CCCC(=O)N3C4)CCCCC2)cc1 | 826 s |
| COc1ccc(-c2noc(N3CCC(N4CCCCC4)CC3)n2)cc1OC | 590 s |
| CC(C)NC(=O)c1cnn2c(-c3ccccn3)ccnc12 | 718 s |
| CCCc1ccc(S(=O)(=O)N2CCc3c(c(-c4nnc(SCC)n4CC)nn3C)C2)cc1 | 1090 s |
| COC(=O)c1c(-c2ccccc2)csc1NC(=O)C1CCN(C(C)=O)CC1 | 862 s |
| CCCN1C(=O)c2cccnc2Sc2cc(C(=O)N3CCCC3)ccc21 | 720 s |
| O=C(CCc1nnn2c1CN(C(=O)COc1ccc(F)cc1)CC2)N1CCCC1 | 665 s |
| Cc1ccn2cc(C(=O)NCc3cccs3)nc2c1 | 591 s |
| Cc1sc(-c2cc(C(F)(F)F)[nH]n2)cc1S(=O)(=O)N1CCN(c2cccc(Cl)c2)CC1 | 1230 s |
| COc1ccccc1-c1noc(C2CCCN2C(=O)c2ccc3c(c2)OCO3)n1 (stereo not drawn) | 845 s |
| CCc1nc(-c2cc(S(=O)(=O)N3CCC(C(=O)Nc4cccc(C#N)c4)CC3)c(C)s2)no1 | 1020 s |
| Cc1ccc(-c2csc(-c3cccn3CC(=O)N(C)Cc3ccco3)n2)cc1 | 1170 s |
| CC1Cc2cc(-c3cc(CC(=O)N4CCN(c5ccccc5F)CC4)no3)ccc2O1 (stereo not drawn) | 975 s |
| O=C(CCn1nnc2ccccc2c1=O)NCCn1ncccc1=O | 584 s |
